In PubChem BioAssay (NCI):
Several values for one entry are separate records, joined by “and”; a condition that tells them apart may be missing. Equal values may be shown once.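 1) Cells in 96-well plates. 2) Compound, 48 h, 5 concentrations. 3) Linear interpolation between surrounding doses. 4) Unreached endpoint = highest concentration. Here, GI50 denotes the concentration required for 50% inhibition of growth. TGI is the concentration that stops growth completely.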

Experiments:
Test in all cases: growth of human tumour cells (NCI), 48 h
[1] = test system: DMS 273 small cell lung
[2] = test system: DLD-1 colon
[3] = test system: SNB-78 CNS
[4] = test system: T-47D breast
[5] = test system: DU-145 prostate
[6] = test system: MCF7 breast
[7] = test system: MDA-MB-231 breast
[8] = test system: PC-3 prostate
[9] = test system: BT-549 breast
[10] = test system: HS 578T breast

FC1OC2OC1C(OCc1ccccc1)C(OCc1ccccc1)C2OCc1ccccc1 (centres undefined)
TGI [1]: > 100 µM
TGI [2]: > 100 µM
TGI [3]: > 100 µM

CC(=O)C1C(=O)N(C(C)C)C[C@@H]2CCC(=O)C[C@H]12 (some centres undefined)
TGI [1]: > 100 µM
TGI [2]: > 100 µM
TGI [3]: > 100 µM

COc1cc2cc3c4c(cc(OC)c(OC)c4c2cc1OC)CCN3C(=O)CCC(=O)NCCCN(C)C
TGI [1]: > 100 µM
TGI [2]: 30.9 µM
TGI [3]: > 100 µM

CNC(=O)CN(CC(N)=O)C(N)=O
TGI [1]: > 100 µM
TGI [2]: > 100 µM
TGI [3]: > 100 µM

N[C@@H]1CCCC[C@@H]1N.O=P([O-])([O-])CN(CP(=O)([O-])[O-])CP(=O)([O-])[O-].[Pt+2]
GI50 [1]: > 100 µM
TGI [1]: > 100 µM
GI50 [2]: > 100 µM
TGI [2]: > 100 µM
GI50 [3]: > 100 µM
TGI [3]: > 100 µM

COc1ccc(S(=O)(=O)N(C)CC(=O)O)cc1
TGI [1]: > 100 µM
TGI [2]: > 100 µM

CC1CC[C@]2(C(=O)O)CCC3(C)C(=CCC4[C@@]5(C)CC[C@H](OS(=O)(=O)c6ccccc6)C(C)(C)C5CC[C@]43C)[C@@H]2[C@H]1C (some centres undefined)
TGI [1]: > 100 µM
TGI [2]: > 100 µM
TGI [3]: > 100 µM

O=C1c2ccccc2C(=O)c2nc3ccc(Cl)cc3cc21
TGI [1]: > 100 µM
TGI [2]: > 100 µM
TGI [3]: > 100 µM

C[C@]12CC[C@H](OC3CCCCO3)CC1=CC[C@@H]1C2CC[C@]2(C)/C(=N/O)CCC12 (some centres undefined)
TGI [1]: 51.8 µM
TGI [2]: > 100 µM
TGI [3]: 64.4 µM

COc1ccc(OC)c2c3c(ccc12)C(c1ccccc1)OC3=O (centres undefined)
TGI [1]: > 100 µM
TGI [2]: > 100 µM
TGI [3]: 64.9 µM

CCCCCCCCCCCCOP(N)(=O)OCCCCCCCCCCCC
TGI [1]: > 100 µM
TGI [2]: > 100 µM
TGI [3]: > 100 µM

C[C@@H]1C[C@]2(C[C@@H](C)C3[C@@H](CC4(C)[C@@H]5CCC6C(C)(C)OC(=O)C=C[C@]67C[C@@]5(CC[C@]34C)OO7)O2)OC1=O (some centres undefined)
TGI [1]: > 100 µM
TGI [2]: > 100 µM
TGI [3]: > 100 µM

CC1=NN(C(=O)c2ccccc2O)C(=O)/C1=C/c1cccc([N+](=O)[O-])c1
TGI [4]: > 100 µM
TGI [5]: > 100 µM
TGI [6]: > 100 µM
TGI [2]: > 100 µM
TGI [3]: > 100 µM
TGI [7]: > 100 µM
TGI [8]: > 100 µM

COc1cccc(NC(=O)C(=O)C(C(C)=O)c2nc3ccc(Cl)cc3[nH]c2=O)c1 (centres undefined)
TGI [1]: > 100 µM
TGI [2]: > 100 µM
TGI [3]: > 100 µM

O=C(c1ccc(Cl)cc1)C1OC12C(=O)Nc1ccccc12 (centres undefined)
TGI [4]: 47.7 µM
TGI [5]: 33.8 µM
TGI [9]: 31.4 µM
TGI [1]: 25.4 µM
TGI [2]: 6.29 µM
TGI [3]: 32.4 µM
TGI [7]: 50.5 µM
TGI [8]: 41 µM
TGI [10]: 44.6 µM

S=c1nc(-c2ccnc(-c3nc(=S)[nH][nH]3)c2)[nH][nH]1
TGI [1]: > 100 µM
TGI [2]: > 100 µM
TGI [3]: > 100 µM

COc1ccc2nc3ccccc3c(NCCCCN(C)CCCl)c2c1
TGI [9]: 1.98 µM
TGI [6]: 0.172 µM
TGI [1]: 0.283 µM
TGI [2]: 0.964 µM
TGI [3]: 0.674 µM

CCOC(=O)[C@H]1Nc2ccccc2C2c3ccccc3CC21 (some centres undefined)
TGI [1]: > 100 µM
TGI [2]: > 100 µM
TGI [3]: > 100 µM

COc1ccc(CCc2cc(OC)c(OC)c(OC)c2)cc1
TGI [5]: 5.62 µM
TGI [9]: > 100 µM
TGI [6]: > 100 µM
TGI [1]: 1.43 µM
TGI [2]: > 100 µM
TGI [3]: 0.0976 µM
TGI [7]: 15.7 µM
TGI [8]: > 62.6 µM
TGI [10]: > 100 µM

C/C(CC(=O)N(C(C)C)C(C)C)=N\NC(=O)c1ccncc1
TGI [1]: > 100 µM
TGI [2]: > 100 µM
TGI [3]: > 100 µM

COc1ccc(CCN=C2CCC(C(=O)NCCc3ccc(OC)c(OC)c3)N2)cc1OC (centres undefined)
TGI [1]: > 100 µM
TGI [2]: > 100 µM
TGI [3]: > 100 µM

Cc1cc(Cl)cc2c1NC(=O)C2=O (tested in a mixture with another compound)
TGI [1]: > 100 µM
TGI [2]: > 100 µM
TGI [3]: 91.1 µM

Cc1ccc(NC(=O)CC(=O)N2N=C(N(CCC#N)c3cccc(C)c3)CC2c2ccccc2)cc1 (centres undefined)
TGI [1]: > 100 µM
TGI [2]: > 100 µM
TGI [3]: > 100 µM

Cc1nc(-n2nc(-c3ccccc3)cc2-c2ccccc2)sc1C(/C=C/c1ccc([N+](=O)[O-])cc1)=N/NC(=O)c1ccncc1
TGI [2]: 33.2 µM
TGI [3]: 61 µM

Nc1ccc(S(=O)(=O)Nc2cnc3c(Cl)cccc3n2)cc1
GI50 [4]: 48.2 µM
TGI [4]: > 750 µM
TGI [5]: > 750 µM
GI50 [9]: 220 µM
TGI [9]: > 750 µM
GI50 [6]: 45.3 µM
TGI [6]: > 721 µM
TGI [1]: 467 µM
TGI [2]: > 655 µM
TGI [3]: 528 µM
GI50 [7]: 78.1 µM
TGI [7]: > 750 µM
GI50 [8]: > 63.9 µM
TGI [8]: > 750 µM
GI50 [10]: 16.3 µM
TGI [10]: > 79.5 µM and 504 µM

CN1CCc2c1nc(-c1ccc([N+](=O)[O-])cc1)c1c2N(C)CC1
TGI [2]: > 100 µM
TGI [3]: > 100 µM

COC(OC)c1cc2c(cc1C(=O)[C@@]13CCC[C@@H]1NC(=O)O3)OCO2
TGI [1]: > 100 µM
TGI [2]: > 100 µM
TGI [3]: > 100 µM

COc1cc(/C=C(\C#N)C(N)=C(C#N)C#N)cc(O)c1O
TGI [4]: > 100 µM
TGI [5]: > 100 µM
TGI [9]: > 100 µM
TGI [6]: > 100 µM
TGI [1]: > 100 µM
TGI [2]: > 100 µM
TGI [3]: > 100 µM
TGI [7]: > 100 µM
TGI [8]: > 100 µM
TGI [10]: > 100 µM

CCOC(=O)C1COc2cc(-c3cc(=O)c4ccccc4o3)ccc2O1 (centres undefined)
TGI [1]: > 100 µM
TGI [2]: > 100 µM
TGI [3]: > 100 µM

CCSC(SCC)=C1C(=O)N(c2ccccc2)N=C1C
TGI [1]: 32 µM
TGI [2]: 26.8 µM
TGI [3]: 46.3 µM

COC(=O)/C(=N/NC(N)=O)C(C(=O)OC)C(=O)C(=O)Nc1ccc(Cl)cc1 (centres undefined)
TGI [1]: > 100 µM
TGI [2]: > 100 µM

CCCCCCCCCCCCCCCCOC(=O)c1cc(O)cc(C(=O)OCCCCCCCCCCCCCCCC)c1
TGI [1]: > 100 µM
TGI [3]: > 100 µM

CCCCCCCCCCCCCc1nn[nH]n1
TGI [2]: 31.8 µM
TGI [3]: 43.6 µM

COc1cc2c(c(OC)c1OC)-c1ccc(SC)c(=O)cc1[C@@H](NC(=O)c1ccc(Cl)cc1)CC2
TGI [1]: > 100 µM
TGI [2]: > 100 µM

COc1ccccc1NC(=O)C(CC(C(=O)Nc1ccccc1OC)/C(C)=N/Nc1ccc([N+](=O)[O-])cc1[N+](=O)[O-])/C(C)=N/Nc1ccc([N+](=O)[O-])cc1[N+](=O)[O-] (centres undefined)
TGI [1]: > 100 µM
TGI [2]: > 100 µM
TGI [3]: > 100 µM

O=C(Nc1cccc(NC(=O)c2cc(=O)c3ccccc3o2)n1)c1cc(=O)c2ccccc2o1
TGI [1]: 57.8 µM
TGI [2]: > 100 µM
TGI [3]: > 100 µM

CCOc1ccc(C(CN2CCOCC2)C(C)=O)cc1OC (centres undefined)
TGI [1]: 23.3 µM
TGI [2]: 27.9 µM
TGI [3]: 66.8 µM

COC(=O)CC(C(C(C)=O)C(=O)OCc1ccccc1)N1C(=O)OCC1c1ccccc1 (centres undefined)
TGI [1]: > 100 µM
TGI [2]: > 100 µM

O=S(=O)(c1ccc(O)c(C=Nc2ccc(Cl)cc2)c1)c1ccc(O)c(C=Nc2ccc(Cl)cc2)c1
TGI [1]: > 100 µM
TGI [2]: > 100 µM
